{"source": "patent US12551482B2", "about": "“Aurora kinase inhibitors” (The Regents of the University of California, priority 2013, dated 2026)", "key": {"[1]": {"system": "RVH-421", "assay": "Cancer cell line profiling, Genomics of Drug Sensitivity Project", "conditions": "Homo sapiens, RVH-421, read-out: CD532 EC50 (uM)"}, "[2]": {"system": "NUGC-3", "assay": "Cancer cell line profiling, Genomics of Drug Sensitivity Project"}, "[3]": {"system": "WM35", "assay": "Cancer cell line profiling, Genomics of Drug Sensitivity Project", "conditions": "WM35, read-out: CD532 EC50 (uM)"}, "[4]": {"system": "HSC-4", "assay": "Cancer cell line profiling, Genomics of Drug Sensitivity Project", "conditions": "Homo sapiens, HSC-4, read-out: CD532 EC50 (uM)"}, "[5]": {"system": "MMAC-SF", "assay": "Cancer cell line profiling, Genomics of Drug Sensitivity Project", "conditions": "read-out: CD532 EC50 (uM)"}, "[6]": {"system": "NB17", "assay": "Cancer cell line profiling, Genomics of Drug Sensitivity Project", "conditions": "read-out: CD532 EC50 (uM)"}, "[7]": {"system": "LB2518-MEL", "assay": "Cancer cell line profiling, Genomics of Drug Sensitivity Project"}, "[8]": {"system": "DSH1", "assay": "Cancer cell line profiling, Genomics of Drug Sensitivity Project", "conditions": "read-out: CD532 EC50 (uM)"}, "[9]": {"system": "MYCN", "assay": "MYCN protein by western blot in SK-N-BE(2) cells", "assay_type": "cell-based", "description": "Neuroblastoma tumor cell lines were obtained from the University of California San Francisco Cell Culture Facility (Kelly, SK-N-BE2, and SH-EP). SMS-KCN, SHEP MYCN^wt and MYCN^T58A/S62A cells were obtained. All cells were grown in RPMI with 10% FBS. Neuroblastoma cells were harvested and lysed with Cell Signaling Lysis buffer+1% SDS, sonicated and supernatants boiled in LDS sample buffer (Invitrogen). Western blots were performed as described previously (Chanthery et al., 2012), with primary antibodies to MYCN (ab24193, Abcam), Histone H3, P-Histone H3 (S10), Aurora A (Cell signaling), and GAPDH (Millipore). Western blot quantitation performed with ImageJ software."}, "[10]": {"system": "AsPC-1", "assay": "Cancer cell line profiling, Genomics of Drug Sensitivity Project", "conditions": "Homo sapiens, ASPC1, read-out: CD532 EC50 (uM)"}, "[11]": {"system": "5637", "assay": "Cancer cell line profiling, Genomics of Drug Sensitivity Project", "conditions": "read-out: CD532 EC50 (uM)"}, "[12]": {"system": "GT3TKB", "assay": "Cancer cell line profiling, Genomics of Drug Sensitivity Project", "conditions": "read-out: CD532 EC50 (uM)"}, "[13]": {"system": "JHH-2", "assay": "Cancer cell line profiling, Genomics of Drug Sensitivity Project", "conditions": "JHH-2, read-out: CD532 EC50 (uM)"}, "[14]": {"system": "KON", "assay": "Cancer cell line profiling, Genomics of Drug Sensitivity Project", "conditions": "read-out: CD532 EC50 (uM)"}, "[15]": {"system": "SNU-81", "assay": "Cancer cell line profiling, Genomics of Drug Sensitivity Project", "conditions": "read-out: CD532 EC50 (uM)"}, "[16]": {"system": "UACC-257", "assay": "Cancer cell line profiling, Genomics of Drug Sensitivity Project", "conditions": "Homo sapiens, UACC-257, read-out: CD532 EC50 (uM)"}, "[17]": {"system": "CAL-62", "assay": "Cancer cell line profiling, Genomics of Drug Sensitivity Project", "conditions": "Homo sapiens, CAL-62, read-out: CD532 EC50 (uM)"}, "[18]": {"system": "BICR 78", "assay": "Cancer cell line profiling, Genomics of Drug Sensitivity Project", "conditions": "read-out: CD532 EC50 (uM)"}, "[19]": {"system": "NB10", "assay": "Cancer cell line profiling, Genomics of Drug Sensitivity Project", "conditions": "read-out: CD532 EC50 (uM)"}, "[20]": {"system": "NCI-N87", "assay": "Cancer cell line profiling, Genomics of Drug Sensitivity Project", "conditions": "Homo sapiens, NCI-N87, read-out: CD532 EC50 (uM)"}, "[21]": {"system": "c-MYC", "assay": "c-MYC protein by immunoblot in c-MYC expressing cancer cell lines", "assay_type": "cell-based"}, "[22]": {"system": "RPMI 2650", "assay": "Cancer cell line profiling, Genomics of Drug Sensitivity Project", "conditions": "Homo sapiens, RPMI-2650, read-out: CD532 EC50 (uM)"}, "[23]": {"system": "IMR-5", "assay": "Cancer cell line profiling, Genomics of Drug Sensitivity Project", "conditions": "Homo sapiens, IMR-5, read-out: CD532 EC50 (uM)"}, "[24]": {"system": "HPAC", "assay": "Cancer cell line profiling, Genomics of Drug Sensitivity Project", "conditions": "Homo sapiens, read-out: CD532 EC50 (uM)"}, "[25]": {"system": "HO-1-u-1", "assay": "Cancer cell line profiling, Genomics of Drug Sensitivity Project", "conditions": "read-out: CD532 EC50 (uM)"}, "[26]": {"system": "SAT", "assay": "Cancer cell line profiling, Genomics of Drug Sensitivity Project", "conditions": "read-out: CD532 EC50 (uM)"}, "[27]": {"system": "HSC-3", "assay": "Cancer cell line profiling, Genomics of Drug Sensitivity Project", "conditions": "Homo sapiens, HSC-3, read-out: CD532 EC50 (uM)"}, "[28]": {"system": "M-14", "assay": "Cancer cell line profiling, Genomics of Drug Sensitivity Project", "conditions": "Homo sapiens, M14, read-out: CD532 EC50 (uM)"}, "[29]": {"system": "NCI-H747", "assay": "Cancer cell line profiling, Genomics of Drug Sensitivity Project", "conditions": "Homo sapiens, NCI-H747, read-out: CD532 EC50 (uM)"}, "[30]": {"system": "LB996-RCC", "assay": "Cancer cell line profiling, Genomics of Drug Sensitivity Project", "conditions": "read-out: CD532 EC50 (uM)"}}, "note": "Read-outs that look alike come from different tables or passages of the source."}
{"smiles": "O=C(Nc1ccc(Nc2nccc(Nc3cc(C4CCCC4)[nH]n3)n2)cc1)Nc1cccc(C(F)(F)F)c1", "note": "[CD532, 1-(4-((4-((5-cyclopentyl-1H-pyrazol-3-yl)amino)pyrimidin-2-yl)amino)phenyl)-3-(3-(trifluoromethyl)phenyl)urea]", "values": [{"measurement": "EC50", "setting": "[1]", "result": 0.585, "unit": "µM"}, {"measurement": "EC50", "setting": "[2]; Homo sapiens, NUGC-3, read-out: CD532 EC50 (uM), NUGC-3 cell line, Stomach", "result": 0.968, "unit": "µM"}, {"measurement": "EC50", "setting": "[2]; read-out: CD532 EC50, NUGC-3 cell line, Stomach", "result": 1.15, "unit": "µM"}, {"measurement": "EC50", "setting": "[3]", "result": 0.367, "unit": "µM"}, {"measurement": "EC50", "setting": "[4]", "result": 0.885, "unit": "µM"}, {"measurement": "EC50", "setting": "[5]", "result": 0.566, "unit": "µM"}, {"measurement": "EC50", "setting": "[6]", "result": 0.282, "unit": "µM"}, {"measurement": "EC50", "setting": "[7]; read-out: CD532 EC50 (uM), LB2518-MEL cell line, Skin", "result": 0.847, "unit": "µM"}, {"measurement": "EC50", "setting": "[7]; read-out: CD532 EC50, LB2518-MEL cell line, Skin", "result": 0.709, "unit": "µM"}, {"measurement": "EC50", "setting": "[8]", "result": 0.779, "unit": "µM"}, {"measurement": "time dependence of MYCN protein loss", "setting": "[9]; 1 μM, time course (FIG. 12A)", "result": "clear and time-dependent loss of MYCN protein"}, {"measurement": "IC50", "setting": "[9]; FIG. 1D, read-out: IC50 for on-target MYCN knockdown", "result": "~250", "unit": "nM"}, {"measurement": "EC50", "setting": "[10]", "result": 5.41, "unit": "µM"}, {"measurement": "EC50", "setting": "[11]", "result": 0.49, "unit": "µM"}, {"measurement": "EC50", "setting": "[12]", "result": 1.05, "unit": "µM"}, {"measurement": "EC50", "setting": "[13]", "result": 0.543, "unit": "µM"}, {"measurement": "EC50", "setting": "[14]", "result": 4.15, "unit": "µM"}, {"measurement": "EC50", "setting": "[15]", "result": 0.421, "unit": "µM"}, {"measurement": "EC50", "setting": "[16]", "result": 0.607, "unit": "µM"}, {"measurement": "EC50", "setting": "[17]", "result": 0.589, "unit": "µM"}, {"measurement": "EC50", "setting": "[18]", "result": 12.2, "unit": "µM"}, {"measurement": "EC50", "setting": "[19]", "result": 0.275, "unit": "µM"}, {"measurement": "EC50", "setting": "[20]", "result": 10.9, "unit": "µM"}, {"measurement": "c-MYC protein", "setting": "[21]; RKO colon cancer cell line", "result": "effects loss of c-MYC protein"}, {"measurement": "c-MYC protein", "setting": "[21]; SUM142 breast cancer cell line", "result": "effects loss of c-MYC protein"}, {"measurement": "c-Myc protein", "setting": "[21]; SUM149 (ER−/PR−) breast cancer cell line", "result": "loss of c-Myc"}, {"measurement": "c-MYC protein", "setting": "[21]; c-MYC-translocated ML-60 leukemia cell line", "result": "effects loss of c-MYC protein"}, {"measurement": "EC50", "setting": "[22]", "result": 0.412, "unit": "µM"}, {"measurement": "EC50", "setting": "[23]", "result": 0.0071, "unit": "µM"}, {"measurement": "EC50", "setting": "[24]", "result": 2.5, "unit": "µM"}, {"measurement": "EC50", "setting": "[25]", "result": 9.81, "unit": "µM"}, {"measurement": "EC50", "setting": "[26]", "result": 1.19, "unit": "µM"}, {"measurement": "EC50", "setting": "[27]", "result": 2.33, "unit": "µM"}, {"measurement": "EC50", "setting": "[28]", "result": 0.972, "unit": "µM"}, {"measurement": "EC50", "setting": "[29]", "result": 0.665, "unit": "µM"}, {"measurement": "EC50", "setting": "[30]", "result": 2.08, "unit": "µM"}]}
